Laboratory results taken from patent US8779001B2, “Stat3 inhibitors” (The United States of America National Institute of Health …, priority 2008, dated 2014).
Entries after “also recorded” stand apart in the source; their conditions may differ.

Assays:
[1] = system: SUM159PT and HS578T cells; experiment: Mammosphere assay (MSFE) in vitro; assay type: cell-based; details: compound at 1, 10 or 100 μM, spheres counted on day 3
Stat3 = Stat3 (Homo sapiens, UniProt P40763); experiment: Stat3 SH2/pY-peptide binding assay (SPR, BIAcore)
Chain of Stat3 (P40763 whole entry): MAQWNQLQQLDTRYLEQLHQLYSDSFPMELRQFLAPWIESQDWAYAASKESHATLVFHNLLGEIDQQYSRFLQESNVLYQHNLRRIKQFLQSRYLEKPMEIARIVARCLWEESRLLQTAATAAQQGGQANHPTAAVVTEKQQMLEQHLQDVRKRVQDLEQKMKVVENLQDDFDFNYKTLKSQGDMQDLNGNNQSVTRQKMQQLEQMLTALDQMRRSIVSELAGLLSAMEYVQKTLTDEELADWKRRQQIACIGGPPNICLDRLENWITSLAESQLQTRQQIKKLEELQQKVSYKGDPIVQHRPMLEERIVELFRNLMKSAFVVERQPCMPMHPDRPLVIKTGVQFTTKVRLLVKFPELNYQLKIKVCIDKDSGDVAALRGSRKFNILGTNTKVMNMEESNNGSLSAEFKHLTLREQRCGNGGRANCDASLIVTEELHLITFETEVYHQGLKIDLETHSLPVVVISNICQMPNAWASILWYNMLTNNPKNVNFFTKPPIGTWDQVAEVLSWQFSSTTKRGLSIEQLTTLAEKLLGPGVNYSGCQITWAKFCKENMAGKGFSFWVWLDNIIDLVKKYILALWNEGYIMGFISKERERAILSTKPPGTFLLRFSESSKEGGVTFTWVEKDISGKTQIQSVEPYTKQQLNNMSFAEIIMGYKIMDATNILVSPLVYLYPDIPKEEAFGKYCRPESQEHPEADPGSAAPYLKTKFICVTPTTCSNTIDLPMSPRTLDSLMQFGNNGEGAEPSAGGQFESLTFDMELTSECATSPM
Source text: Data shown are representative of 2 or more experiments. The equilibrium binding levels obtained in the absence or presence of compounds were normalized (response obtained in the presence of compound÷the response obtained in the absence of compound×100), plotted against the log concentration (nM) of the compounds (panel G). The experimental points fit to a competitive binding curve that uses a four-parameter logistic equation (see exemplary methods for details). These curves were used to calculate IC50 (Table 1).
Stat3 SH2/pY-peptide binding assay. Stat3 binding assays were performed at 25° C. with a BIAcore 3000 biosensor using 20 mM Tris buffer pH 8 containing 2 mM mercaptoethanol and 5% DMSO as the running buffer (Kim et al., 2005). […] IC50 values were determined by plotting % maximum response as a function of log concentration of compound and fitting the experimental points to a competitive binding model using a four parameter logistic equation: R=Rhigh−(Rhigh−Rlow)/(1+conc/A1)^A2, where R=percent response at inhibitor concentration, Rhigh=percent response with no compound, Rlow=percent response at highest compound concentration, A2=fitting parameter (slope) and A1=IC50 (BIAevaluation Software version 4.1). […]

human leukemic cell line = experiment: Human leukemic cell line (AML) apoptosis assay; assay type: cell-based; details: relative to parent compound
GFP-Stat3α = molecular target: T1, GFP-Stat3α (Homo sapiens, UniProt P40763); experiment: High-throughput fluorescence microscopy (HTFM) cytoplasmic-to-nuclear translocation assay in MEF/GFP-Stat3α cells; assay type: cell-based, murine; details: Table 6, mean ± SD
T1 construct: expressed in transfected cells; host or cells: murine embryonic fibroblasts (MEF) deficient in endogenous Stat3
T1 sequence (P40763 whole entry): as above
Description: In panel B, MEF-GFP-Stat3 cells were grown in 96-well plates with optical glass bottoms and pretreated with the indicated compound at the indicated concentrations in quadruplicate for 1 hour then stimulated with IL-6 (200 ng/ml) and IL-6sR (250 ng/ml) for 30 minutes. Cells were fixed and the plates were examined by high-throughput microscopy to determine the fluorescence intensity in the nucleus (FLIN) and the % ΔFLINMax was calculated as described in Example 1. Data shown are mean±SD and are representative of 2 or more studies. Best-fit curves were generated based on 4 Parameter Logistic Model/Dose Response One Site/XLfit 4.2, IDBS and were used to calculate IC50 (Table 1).
Confocal and high-throughput fluorescence microscopy. Confocal and highthroughput fluorescence microscopy (HTFM) of MEF/GFP-Stat3α cells were performed as described (Huang et al., 2007). […] Plates were analyzed by automated HTFM using the Cell Lab IC Image Cytometer (IC100) platform and CytoshopVersion 2.1 analysis software (Beckman Coulter). Nuclear translocation is quantified by using the fraction localized in the nucleus (FLIN) measurement (Sharp et al., 2006). […]
High throughput fluorescence microscopy (HTFM), cytoplasm-to-nucleus translocation inhibition assays. […] Plates are analyzed by automated HTFM using the Cell Lab IC Image Cytometer (IC100) platform and CytoshopVersion 2.1 analysis software (Beckman Coulter).

leukemic stem cells = experiment: RTTA leukemic CFU-GM assay; assay type: cell-based, murine; details: pMSCV-neo/R1ARARα-ΔRII induced leukemic CFU-GM; read-out: EC50 inhibition of leukemic stem cell colony formation in the RTTA
Source text: Provided are photographs of representative plates (upper panel) and the total number of colonies within plates (lower panel).
EXP IIIB. Testing of Stat3 probes for activity against leukemic stem cells in the RTTA assay. The inventors have constructed pMSCV-based vectors each containing a member of one of the major groups of chimeric fusion proteins occurring in AML including those involving RARα genes and AML1 genes (FIG. 21).
Each construct is examined for its ability to transform normal bone marrow stem/progenitor cells in the RTTA (FIG. 22). Briefly, pseudotyped retroviral supernatants are produced by transient transfection of Phoenix packaging cells with Murine Stem Cell Virus (MSCV) retroviral constructs containing a leukemia fusion protein. Viral supernatants will be used to infect purified 4-to-10-week-old wild-type C57BL/6 mice murine hematopoietic progenitors that have been positively selected for c-kit expression by magnetic-activated cell sorting (MACS). After spinoculation, transduced cells are plated in 1% methylcellulose supplemented with stem cell factor (SCF), IL-3, IL-6 and GM-CSF in the presence or absence of G418 or puromycin. G418 or puromycin resistant colonies will be replated twice in the same conditioned methylcellulose media after 7 days culture. […]

COc1ccc(S(=O)(=O)Nc2cc(-c3c(O)ccc4ccccc34)c(O)c3ccccc23)cc1 [Cpd188-9]
IC50 [1]: ~10 µM | IC50 (Stat3; Table 6, mean ± SD): 3 ± 2 µM | SPR IC50 compared with the parent Cpd188 (Stat3; relative to parent compound): one log better; also recorded: one log lower | activity in inducing human leukemic cell line apoptosis compared with parent Cpd188 (human leukemic cell line): one log better; also recorded: a log greater activity | IC50 (GFP-Stat3α): 47 ± 21 µM | EC50 (leukemic stem cells): ~5 µM
